Earlier results on five molecules are cited in patent US20100136097A1, “Systems for modulating inflammation” (Searete LLC, a limited liability corporation of the State …, priority 2008, published 2010).

For data set [1] the following is noted: single agent, infused at 400 mg over one hour.
The test system of data set [2] is Src family kinase.
The test system of data set [3] is proteasomal activity in cultured breast cancer cells. The following applies: through binding of copper.
For data set [4] the following is noted: mice.
For data set [5], the system named is Src family kinases (Src, Lck, Yes, Fyn). Particulars: at nanomolar concentrations.

With `CCN(CC)CCCC(C)Nc1ccnc2cc(Cl)ccc12.O=P(O)(O)O.O=P(O)(O)O` (centres unmarked) [Chloroquine phosphate, 7-chloro-4-[[4-(diethylamino)-1-methylbutyl]amino]quinoline phosphate (1:2)], the tolerability of infusion entry in data set [1] is listed as “without complication”. Turning to `CCN(CC)CCCC(C)Nc1ccnc2cc(Cl)ccc12` (centres unmarked) [Chloroquine], the “inhibition of CpG-induced Src family kinase activation, or its dependent cellular responses” value in data set [2] is “does not inhibit”.

For `CCN(CC)C(=S)SSC(=S)N(CC)CC` [Disulfiram, 1-(diethylthiocarbamoyldisulfanyl)-N,N-diethyl-methanethioamide], in data set [3], the proteasomal activity result is “inhibits proteasomal activity”.

On to `Cl.Cl.Nc1ccccc1Oc1ccc2c(N)nsc2c1` [Example M62812, 3-amino-6-(2-aminophenoxy)-1,2-benzisothiazole dihydrochloride], for which the “prevention of lethal septic shock” value in data set [4] is “prevents lethal septic shock”. As to `Cc1nc(Nc2ncc(C(=O)Nc3c(C)cccc3Cl)s2)cc(N2CCN(CCO)CC2)n1.O` [dasatinib, N-(2-chloro-6-methylphenyl)-2-[[6-[4-(2-hydroxyethyl)-1-piperazinyl]-2-methyl-4-pyrimidinyl]amino]-5-thiazolecarboxamide, monohydrate], the “inhibition of Src family kinases (Src, Lck, Yes, Fyn)” value in data set [5] is on record as “inhibits”.
